The source of these data is ChEMBL document CHEMBL5053484, “Structure-Based Identification of Potent Lysine-Specific Demethylase 1 Inhibitor Peptides and Temporary Cyclization to Enhance Proteolytic Stability and Cell Growth-Inhibitory Activity” (J Med Chem, 2021).

One assay addresses LSD1/CoREST complex (Homo sapiens, UniProt O60341). Nature of the assay: Inhibition of human LSD1/CoREST. The class given is protein-complex assay.
The subject of a further assay is HL-60. Put plainly: cells. The following applies: Homo sapiens, HL-60, 72 h.
The next assay has as its system WI-38. Put plainly: Antiproliferative activity against human WI-38 cells after 72 hrs by alamarBlue assay. The class given is cell-based. The following applies: WI-38, 72 h. (The colour change of resazurin is a common sign of viable cells or microbes.)

The structures appear in SMILES notation. Residues, ends and D or L forms follow the SMILES beside them.

Description for HL-60: Antiproliferative activity against human HL-60 cells measured after 72 hrs by alamarBlue assay

As for `N=C(N)NCCC[C@H](NC(=O)[C@H](CCCNC(=N)N)NC(=O)[C@H](CCCNC(=N)N)NC(=O)[C@H](CCCNC(=N)N)NC(=O)[C@H](CCCNC(=N)N)NC(=O)[C@H](CCCNC(=N)N)NC(=O)[C@H](CCCNC(=N)N)NC(=O)[C@H](CCCNC(=N)N)NC(=O)[C@H](CCCNC(=N)N)NC(=O)[C@H](CCCNC(=N)N)NC(=O)c1cc(OCc2cn(CCO)nn2)cc(OCc2cn(CCO)nn2)c1)C(N)=O`, the affinity at LSD1/CoREST complex, expressed as Ki, was 0.17 µM. In addition, the IC50 (in general, the midpoint of a concentration-inhibition curve) in the assay on HL-60 was over 100 µM. Take `CC(C)C[C@H](NC(=O)[C@H](Cc1ccccc1)NC(=O)[C@H](CO)NC(=O)[C@H](CCCNC(=N)N)NC(=O)[C@@H]1CCCN1)C(=O)N[C@H](C(=O)N[C@@H](CCCNC(=N)N)C(=O)N[C@@H](CCCNC(=N)N)C(=O)N[C@@H](CCCCN)C(=O)O)C(C)C` (H-PRSFLVRRK-OH): the IC50 in the assay with WI-38 and in the assay with HL-60 was over 100 µM throughout. As for `CN1CCN(C(=O)CNC2CC2c2cc(F)cc(F)c2OCc2ccccc2)CC1` (centres undefined), the IC50 in the assay with WI-38 is over 50 µM. With `CC(C)C[C@@H]1NC(=O)[C@H](Cc2ccccc2)NC(=O)[C@H](CO)NC(=O)[C@H](CCCNC(=N)N)NC(=O)[C@@H]2CCCN2C(=O)OCCOCCn2cc(nn2)COc2cc(cc(C(=O)N[C@@H](CCCNC(=N)N)C(=O)N[C@@H](CCCNC(=N)N)C(=O)N[C@@H](CCCNC(=N)N)C(=O)N[C@@H](CCCNC(=N)N)C(=O)N[C@@H](CCCNC(=N)N)C(=O)N[C@@H](CCCNC(=N)N)C(=O)N[C@@H](CCCNC(=N)N)C(=O)N[C@@H](CCCNC(=N)N)C(=O)N[C@@H](CCCNC(=N)N)C(=O)N[C@@H](CCCNC(=N)N)C(N)=O)c2)OCc2cn(nn2)CCOCCOC(=O)NCCCC[C@@H](C(N)=O)NC(=O)[C@H](CCCNC(=N)N)NC(=O)[C@H](CCCNC(=N)N)NC(=O)[C@H](C(C)C)NC1=O`, the IC50 in the assay with WI-38 is over 100 µM; in the assay with HL-60, 17 µM. The like results for `CC(C)C[C@@H]1NC(=O)[C@H](Cc2ccccc2)NC(=O)[C@H](CO)NC(=O)[C@H](CCCNC(=N)N)NC(=O)[C@@H]2CCCN2C(=O)OCCSSCCn2cc(nn2)COc2cc(cc(C(=O)N[C@@H](CCCNC(=N)N)C(=O)N[C@@H](CCCNC(=N)N)C(=O)N[C@@H](CCCNC(=N)N)C(=O)N[C@@H](CCCNC(=N)N)C(=O)N[C@@H](CCCNC(=N)N)C(=O)N[C@@H](CCCNC(=N)N)C(=O)N[C@@H](CCCNC(=N)N)C(=O)N[C@@H](CCCNC(=N)N)C(=O)N[C@@H](CCCNC(=N)N)C(=O)N[C@@H](CCCNC(=N)N)C(N)=O)c2)OCc2cn(nn2)CCSSCCOC(=O)NCCCC[C@@H](C(N)=O)NC(=O)[C@H](CCCNC(=N)N)NC(=O)[C@H](CCCNC(=N)N)NC(=O)[C@H](C(C)C)NC1=O` were, in that order, 41 µM and 5.2 µM.
